Columns and labels:
[1] = molecular target: T1, 5-hydroxytryptamine receptor 7 (Homo sapiens, UniProt P34969); assay: Displacement of [3H]-8-OH-DPAT from human 5-HT7 receptor expressed in CHOK1 cells after 30 mins by liquid scintillation counting analysis; type: cell-based, CHO-K1
[2] = molecular target: T2, 5-hydroxytryptamine receptor 1A (Homo sapiens, UniProt P08908); assay: Displacement of [3H]-5-HT from human 5-HT1A receptor expressed in CHOK1 cells after 30 mins by liquid scintillation counting analysis; type: cell-based, CHO-K1
T2 sequence (P08908 whole entry): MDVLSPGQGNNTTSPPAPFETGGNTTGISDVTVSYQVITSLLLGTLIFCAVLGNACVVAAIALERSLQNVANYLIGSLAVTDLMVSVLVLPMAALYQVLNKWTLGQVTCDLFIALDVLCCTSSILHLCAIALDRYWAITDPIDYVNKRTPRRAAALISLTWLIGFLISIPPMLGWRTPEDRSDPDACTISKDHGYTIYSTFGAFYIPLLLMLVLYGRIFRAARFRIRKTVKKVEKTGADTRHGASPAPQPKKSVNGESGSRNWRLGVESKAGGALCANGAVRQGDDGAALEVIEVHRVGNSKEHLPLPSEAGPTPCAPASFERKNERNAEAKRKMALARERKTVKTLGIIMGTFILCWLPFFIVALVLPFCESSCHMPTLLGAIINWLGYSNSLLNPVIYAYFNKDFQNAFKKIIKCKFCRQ

[3] = molecular target: 5-hydroxytryptamine receptor 1B (Homo sapiens) (UniProt P28222); assay: Antagonist activity at human […] receptor expressed in HEK293 cells assessed as inhibition of 5-CT-induced cAMP production at 1 uM after 30 mins by TR-FRET assay; type: functional, cell-based
[4] = organism: Homo sapiens; assay: Selectivity ratio of Ki for human 5-HT7 receptor to Ki for human 5-HT1A receptor
[5] = molecular target: T1, 5-hydroxytryptamine receptor 7; assay: Displacement of [3H]-8-OH-DPAT from human 5-HT7 receptor expressed in CHOK1 cells at 10^-5 M after 30 mins by liquid scintillation counting analysis; type: cell-based; conditions: CHO-K1
[6] = molecular target: T3, 5-hydroxytryptamine receptor 1A (Rattus norvegicus, UniProt P19327); assay: Binding affinity to rat hippocampus 5-HT1A receptor
T3 sequence (P19327 whole entry): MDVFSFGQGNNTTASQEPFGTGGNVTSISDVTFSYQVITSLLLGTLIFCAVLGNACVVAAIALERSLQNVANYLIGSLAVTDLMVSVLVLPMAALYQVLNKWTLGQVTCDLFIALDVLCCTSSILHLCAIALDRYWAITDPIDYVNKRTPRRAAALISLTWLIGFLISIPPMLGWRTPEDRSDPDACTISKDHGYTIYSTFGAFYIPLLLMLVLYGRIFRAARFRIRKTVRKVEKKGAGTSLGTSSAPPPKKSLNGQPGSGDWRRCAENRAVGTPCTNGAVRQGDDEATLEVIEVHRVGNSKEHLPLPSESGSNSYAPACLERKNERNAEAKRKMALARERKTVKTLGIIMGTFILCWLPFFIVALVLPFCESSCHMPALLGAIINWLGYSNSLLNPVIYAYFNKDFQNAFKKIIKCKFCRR

[7] = organism: Homo sapiens; assay: Selectivity ratio of Ki for human 5-HT1A receptor to Ki for human 5-HT7 receptor

Sequence of 5-hydroxytryptamine receptor 1B (Homo sapiens) (P28222 whole entry): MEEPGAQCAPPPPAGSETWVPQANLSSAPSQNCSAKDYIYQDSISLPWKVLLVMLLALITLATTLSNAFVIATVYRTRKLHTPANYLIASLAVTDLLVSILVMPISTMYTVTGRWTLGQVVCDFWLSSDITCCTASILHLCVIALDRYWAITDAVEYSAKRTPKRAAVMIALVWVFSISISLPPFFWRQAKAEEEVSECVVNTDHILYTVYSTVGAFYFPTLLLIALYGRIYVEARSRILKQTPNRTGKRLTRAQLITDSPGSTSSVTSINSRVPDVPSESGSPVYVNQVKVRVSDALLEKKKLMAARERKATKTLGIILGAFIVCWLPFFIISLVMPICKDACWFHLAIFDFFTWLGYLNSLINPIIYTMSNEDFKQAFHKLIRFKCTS
T1 sequence (P34969 whole entry): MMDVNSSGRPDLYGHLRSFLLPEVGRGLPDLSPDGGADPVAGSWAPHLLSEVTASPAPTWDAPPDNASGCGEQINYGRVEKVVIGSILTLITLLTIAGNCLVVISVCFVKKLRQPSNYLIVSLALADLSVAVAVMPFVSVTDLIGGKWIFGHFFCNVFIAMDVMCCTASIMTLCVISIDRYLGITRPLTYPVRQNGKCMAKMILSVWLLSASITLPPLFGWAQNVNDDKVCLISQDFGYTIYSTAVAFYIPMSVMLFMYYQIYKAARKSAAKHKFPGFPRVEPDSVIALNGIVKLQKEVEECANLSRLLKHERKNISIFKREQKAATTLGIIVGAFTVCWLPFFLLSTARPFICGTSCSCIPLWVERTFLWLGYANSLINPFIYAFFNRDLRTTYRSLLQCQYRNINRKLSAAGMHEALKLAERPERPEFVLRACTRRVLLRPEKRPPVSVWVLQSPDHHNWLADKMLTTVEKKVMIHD

Row | Compound | Ki [1] [nM] | Ki [2] [nM] | also measured
1 | O=c1[nH]c(CCCCN2CCN(c3ccc(Cl)cc3)CC2)nc2ccccc12 | 1140 | 75.3 | 
2 | O=c1[nH]c(CCCCCN2CCN(c3cccc(Cl)c3)CC2)nc2ccccc12 | 11.9 | 7.33 | 
3 | CC1CCN(CC[C@H]2CCCN2S(=O)(=O)c2cccc(O)c2)CC1 |  |  | inhibition [3]: 90%
4 | Cc1sc2nc(CCCCCN3CCN(c4ccc(Cl)cc4)CC3)[nH]c(=O)c2c1C | 1460 | 53.9 | 
5 | Cc1sc2ncn(CCCCCN3CCN(c4cccc(Cl)c4)CC3)c(=O)c2c1C | 88.5 | 3.23 | Ratio Ki [4]: 27
6 | Cc1sc2nc(CCCCN3CCN(Cc4ccccc4)CC3)[nH]c(=O)c2c1C |  |  | inhibition [5]: < 50%
7 | O=c1c2ccccc2ncn1CCCCCN1CCN(c2ccc(Cl)cc2)CC1 | 12.9 | 51.5 | 
8 | Cc1sc2ncn(CCCCCN3CCN(c4ccc(Cl)cc4)CC3)c(=O)c2c1C | 213 | 26.4 | 
9 | CCOc1ccccc1N1CCN(CCCCCn2cnc3sc(C)c(C)c3c2=O)CC1 | 2.99 | 1.03 | inhibition [3]: 38%
10 | O=c1c2ccccc2ncn1CCCCCN1CCN(c2ccccc2)CC1 | 307 | 28.9 | 
11 | Cc1sc2nc(CCCCN3CCC(Cc4ccccc4)CC3)[nH]c(=O)c2c1C |  |  | inhibition [5]: < 50%
12 | O=c1c2ccccc2ncn1CCCCCN1CCN(c2cccc(Cl)c2)CC1 | 35.8 | 6.28 | 
13 | O=c1[nH]c(CCCCCN2CCN(c3ccc(Cl)cc3)CC2)nc2ccccc12 | 101 | 116 | 
14 | Cc1sc2ncn(CCCCCN3CCN(c4ccccc4)CC3)c(=O)c2c1C | 143 | 16.1 | 
15 | Cc1sc2nc(CCCCCN3CCN(c4cccc(Cl)c4)CC3)[nH]c(=O)c2c1C | 68.4 | 114 | Ratio Ki [7]: 2
16 | O=c1[nH]c(CCCCN2CCN(c3cccc(Cl)c3)CC2)nc2ccccc12 | 21.2 | 2.96 | 
17 | Cc1sc2nc(CCCCCN3CCN(c4ccccc4)CC3)[nH]c(=O)c2c1C | 30.1 | 15.2 | 

Now from value to molecule, other results behind:

Row | Ki [1] [nM] | Ki [2] [nM] | Compound | also measured
18 | 228 | 43.5 | O=c1[nH]c(CCCCCN2CCN(c3ccccc3)CC2)nc2ccccc12 | 
19 | 1650 | 211 | Cc1sc2ncn(CCCCCN3CCN(Cc4ccccc4)CC3)c(=O)c2c1C | 
20 | 502 | 5.3 | O=c1c2ccccc2ncn1CCCCN1CCN(c2cccc(Cl)c2)CC1 | Ki [6]: 50 nM
21 | 1080 | 268 | O=c1c2ccccc2ncn1CCCCCN1CCN(Cc2ccccc2)CC1 | 
22 | 357 | 37.4 | Cc1sc2nc(CCCCN3CCN(c4ccccc4)CC3)[nH]c(=O)c2c1C | Ratio Ki [4]: 10
23 | 6.88 | 1.04 | CCOc1ccccc1N1CCN(CCCCCn2cnc3ccccc3c2=O)CC1 | inhibition [3]: 42%
24 | 185 | 148 | Cc1sc2nc(CCCCCN3CCC(Cc4ccccc4)CC3)[nH]c(=O)c2c1C | 
25 | 145 | 36.6 | O=c1[nH]c(CCCCN2CCN(c3ccccc3)CC2)nc2ccccc12 | 
26 | 168 | 39.6 | NC(=O)c1ccccc1NC(=O)CCCCN1CCN(c2cccc(Cl)c2)CC1 | 
27 | 147 | 363 | Cc1sc2nc(CCCCCN3CCN(Cc4ccccc4)CC3)[nH]c(=O)c2c1C | 

Reference: ChEMBL document CHEMBL3400047, “Synthesis and binding properties of new long-chain 4-substituted piperazine derivatives as 5-HT₁A and 5-HT₇ receptor ligands” (Bioorg Med Chem Lett, 2015)
